Reference: US10124035B2, “DISC-1 pathway activators in the control of neurogenesis” (Massachusetts Institute of Technology, priority 2008, dated 2018)
“Also recorded” adds a separate entry of the source.

Legend:
[1] = tested on: adult progenitor proliferation in dentate gyrus; test: Adult progenitor proliferation in dentate gyrus (BrdU) after lentivirus injection; assay type: in vivo
Source text: Cell positioning and BrdU incorporation defects caused by DISC1 loss-of-function are rescued by human WT-DISC1 or SA-β-catenin. The percentage of GFP positive cells in the SVZ/VZ or CP is shown (n=5, **, p<0.01; ***, p<0.005). Scale bar=20 μm. b. The reduction in mitotic index caused by DISC1 knockdown in embryonic brains is rescued by human WT-DISC1 or SA-β-catenin. Arrows indicate GFP and pH3 double positive cells. Shown is the percentage of GFP and pH3 double positive cells in total GFP positive cells (n=4, *, p<0.05; ***, p<0.005). Scale bar=20 μm. c. Control or DISC1 shRNA-1 lentivirus was stereotactically injected into adult dentate gyms. After 4 weeks of recovery, mice received SB216763 (2 mg/kg) every other day for 2 weeks and BrdU (100 mg/kg) daily for 7 days. The GFP signal represents lentiviral infected cells in dentate gyms. Scale bar=50 μm. d. […] The percentage of GFP and BrdU double positive cells is shown (n=5, *, p<0.05; **, p<0.01; ***, p<0.005; ns, not significant). Scale bar=10 μm.
• Mice. Swiss Webster pregnant female mice were purchased from Taconic (Hudson, N.Y.). • Cell Culture. AHPs were kindly provided by Dr. Gage (Lie, D. C. et al. Wnt signaling to regulates adult hippocampal neurogenesis. Nature 437, 1370-5 (2005)) and cultured under conditions described previously (Palmer, T. D., Takahashi, J. & Gage, F. H. The adult rat hippocampus contains primordial neural stem cells. Mol Cell Neurosci 8, 389-404 (1997)). Primary neural progenitors were isolated from E14 mouse embryos and cultured as described previously (Sanada, K. & Tsai, L. H. G protein betagamma subunits and AGS3 control spindle orientation and asymmetric cell fate of cerebral cortical progenitors. Cell 122, 119-31 (2005)). N2a and 293T cells were cultured in DMEM medium containing 10% FBS, L-glutamine, and penicillin/streptomycin. Wnt3a expressing L cells and untransfected L cells were obtained from ATCC (Manassas, Va.). Wnt3a conditional medium was produced according to the ATCC protocol. To induce AHP differentiation, FGF2 was removed from the culture medium and 1 μM retinoic acid/1% FBS was added to the medium for 4 days. • Reagents. Recombinant Wnt3a protein was obtained from Chemicon (Rosemont, Ill.). FGF2 was obtained from PeproTech (Rocky Hill, N.J.). Recombinant GST-GSK3β was obtained from Active Motif (Carlsbad, Calif.). Recombinant GST-β-catenin and GST-axin were obtained from Millipore (Billerica, Mass.). The GSK313 inhibitor, SB-216763, AR-A104418 and His-GSK3β, were obtained from Sigma-Aldrich (Sigma-Aldrich, St. Louis, Mo.). L803-MTS was obtained from Calbiochem (San Diego, Calif.). GST-AKT1 was obtained from Cell Signaling (Beverly, Mass.). […]

[2] = tested on: DISC1 shRNA injected mice; test: Open Field test (hyperlocomotion in response to novelty); assay type: in vivo, mouse; conditions: for hyperlocomotion/hyperactivity in novel open field: DISC1 shRNA injected mice, SB-216763 2 mg/kg i.p.
Procedure: (§1) Behavioral abnormalities in DISC1 knockdown mice. a. DISC1 knockdown in adult dentate gyms caused increased hyperactivity in the Open Field Test. b and c. DISC1 knockdown in adult dentate gyms caused depressive-like behavior in the Forced Swimming test and the Novelty Suppression Feeding experiment. b. Forced Swimming Test Mice were put in the beaker with water for 6 minutes and counted the last 4 minutes for the time of immobility. c. Novelty Suppression Feeding Test. Mice were restricted with food for 48 hours and tested for the motivation to eat food. Mice were tested the latency for first bite, the time they spent on food, and the time they ate during 5 minutes. d. […] Mice were injected and allowed to recover for 2 weeks, then treated with the GDK3beta inhibitor SB216763 at 2 mg/kg/day for two weeks, after that the behavioral test was performed.
Alterations in neurogenesis are implicated in the development of depression and other abnormal behaviors. To examine the behavioral consequences of disrupting the DICS1/GSK3β pathway, we silenced DISC1 expression in the adult dentate gyms and evaluated behavioral consequences. Four weeks after the injection of control or DISC1 shRNA-1 lentivirus, mice were treated with vehicle or SB-216763 (2 mg/kg i.p.) every other day for 10 days. […] DISC1 shRNA injected mice traveled a greater distance and spent more time moving in a novel open field than control mice (FIG. 17A). These behaviors were normalized by SB-216763 treatment. We further tested whether DISC1 loss-of-function had consequences on depression-like behavior in the forced swim test. […] Importantly, swimming velocity was unchanged. […] Thus, increased GSK3β activity caused by DISC1 loss-of-function is associated with schizophrenia- and depression-like behaviors.

[3] = tested on: DISC1 shRNA infected mice; test: Forced swim test; assay type: in vivo, mouse
Procedure: as §1
Alterations in neurogenesis are implicated in the development of depression and other abnormal behaviors. To examine the behavioral consequences of disrupting the DICS1/GSK3β pathway, we silenced DISC1 expression in the adult dentate gyms and evaluated behavioral consequences. Four weeks after the injection of control or DISC1 shRNA-1 lentivirus, mice were treated with vehicle or SB-216763 (2 mg/kg i.p.) every other day for 10 days. […]

[4] = lentivirus in adult dentate gyrus, compared to control mice

Compound | active caspase 3 labeling in GFP positive cells in the dentate gyrus ([1]; lentivirus injected adult mice) | BrdU incorporation in adult dentate gyrus ([1]; lentivirus injected, compared to control shRNA cells) | locomotion in novel open field [2, 4] | immobility in forced swim test [3, 4] | BrdU positive cells in dentate gyrus ([1]; DISC1 shRNA-1 infected mice, SB216763 2 mg/kg for 2 weeks, 2 mg/kg) | number of BrdU positive cells in dentate gyrus ([1]; mice infected with control virus, SB216763 2 mg/kg for 2 weeks) | hyperlocomotion/hyperactivity in novel open field ([2]; 2 mg/kg) | hyperlocomotion/hyperactivity in novel open field ([2]; listed as SB216763, 2 mg/kg) | immobility in forced swim test ([3]; DISC1 shRNA infected mice, SB-216763 2 mg/kg i.p.)
DISC1 shRNA-1: shRNA targeting rat and mouse DISC1, SEQ ID NO:4, in pLentiLox 3.7 vector (GGCAAACACTGTGAAGTGC) | no increase in active caspase 3 labeling | significant reduction in BrdU incorporation | hyperlocomotion in response to novelty | greater immobility |  |  |  |  | 
Cn1cc(C2=C(c3ccc(Cl)cc3Cl)C(=O)NC2=O)c2ccccc21 [SB-216763] |  |  |  |  | no longer exhibited a reduction in BrdU positive cells; also recorded: can be rescued | significantly increased the number of BrdU positive cells | normalized | can be rescued | suppressed
